Toxic doses and inconclusive results are not listed. Cut-off read from the data, not from the text of the source: active = T/C of 150% or more; inactive = T/C below 125%.
Test system: L1210 leukemia ip in BDF1 mice, survival T/C
Experiment: NCI In Vivo Anticancer Drug Screen. Data for tumor model L1210 Leukemia (intraperitoneal) in B6D2F1 (BDF1) mice
Details: endpoint: mean survival time, higher = longer survival
Method in brief: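 Survival endpoint. Drug-treated group vs vehicle group, expressed as T divided by C. Tumor passaged by transplantation.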

[1] = dose: 100.0 mg/kg/injection, schedule: Q01DX001 (ip), vehicle: Klucel (hydroxypropylcellulose) (HPC)
[2] = dose: 200.0 mg/kg/injection, schedule: Q01DX001 (ip), vehicle: Klucel (hydroxypropylcellulose) (HPC)
[3] = dose: 100.0 mg/kg/injection, schedule: Q01DX009 (ip), vehicle: Klucel (hydroxypropylcellulose) (HPC)
[4] = dose: 100.0 mg/kg/injection, schedule: Q04DX003 (ip), vehicle: Klucel (hydroxypropylcellulose) (HPC)
[5] = dose: 200.0 mg/kg/injection, schedule: Q01DX009 (ip), vehicle: Klucel (hydroxypropylcellulose) (HPC)
[6] = dose: 200.0 mg/kg/injection, schedule: Q04DX003 (ip), vehicle: Klucel (hydroxypropylcellulose) (HPC)
[7] = dose: 400.0 mg/kg/injection, schedule: Q01DX009 (ip), vehicle: Klucel (hydroxypropylcellulose) (HPC)
[8] = dose: 400.0 mg/kg/injection, schedule: Q04DX003 (ip), vehicle: Klucel (hydroxypropylcellulose) (HPC)

Measured: T/C

CC(=O)Nc1cc(Cl)c2[nH]cnc2n1
inactive: dose: 88.0 mg/kg/injection, schedule: Q01DX001 (ip), vehicle: Klucel (hydroxypropylcellulose) (HPC) 100 % of control | [1] 101 % of control | dose: 100.0 mg/kg/injection, schedule: Q04DX003 (ip), vehicle: water 110 % of control | dose: 133.0 mg/kg/injection, schedule: Q01DX001 (ip), vehicle: Klucel (hydroxypropylcellulose) (HPC) 90 % of control | [2] 95 % of control | dose: 200.0 mg/kg/injection, schedule: Q04DX003 (ip), vehicle: water 115 % of control | dose: 300.0 mg/kg/injection, schedule: Q01DX001 (ip), vehicle: Klucel (hydroxypropylcellulose) (HPC) 97 % of control

COC(=O)c1cccc(O)c1O
inactive: dose: 100.0 mg/kg/injection, schedule: Q01DX005 (ip), vehicle: other 96 % of control | dose: 100.0 mg/kg/injection, schedule: Q01DX009 (ip), vehicle: other 114 % of control | dose: 200.0 mg/kg/injection, schedule: Q01DX005 (ip), vehicle: other 100 % of control | dose: 200.0 mg/kg/injection, schedule: Q01DX009 (ip), vehicle: other 107 % of control | dose: 400.0 mg/kg/injection, schedule: Q01DX005 (ip), vehicle: other 104 % of control | dose: 400.0 mg/kg/injection, schedule: Q01DX009 (ip), vehicle: other 88 % of control

CC(=O)OC1CCC2(C)C(CCC3C2CC(OC(C)=O)C2(C)C3CCC2C2(C)SCCS2)C1 (centres undefined)
inactive: dose: 100.0 mg/kg/injection, schedule: Q04DX002 (ip), vehicle: Klucel (hydroxypropylcellulose) (HPC) 94 % of control | dose: 400.0 mg/kg/injection, schedule: Q04DX002 (ip), vehicle: Klucel (hydroxypropylcellulose) (HPC) 87 % of control

Cc1c(CCl)c(C)c(CCl)c(C)c1CCl
inactive: dose: 12.0 mg/kg/injection, schedule: Q04DX003 (ip), vehicle: Klucel (hydroxypropylcellulose) (HPC) 105 % of control | dose: 25.0 mg/kg/injection, schedule: Q01DX009 (ip), vehicle: Klucel (hydroxypropylcellulose) (HPC) 88 % of control | dose: 25.0 mg/kg/injection, schedule: Q04DX003 (ip), vehicle: Klucel (hydroxypropylcellulose) (HPC) 100 % of control | dose: 50.0 mg/kg/injection, schedule: Q01DX009 (ip), vehicle: Klucel (hydroxypropylcellulose) (HPC) 100 % of control | dose: 50.0 mg/kg/injection, schedule: Q04DX003 (ip), vehicle: Klucel (hydroxypropylcellulose) (HPC) 100 % of control

CN(C)N=Nc1cn(C2CC(O)C(CO)O2)c(=O)[nH]c1=O (centres undefined)
inactive: dose: 100.0 mg/kg/injection, schedule: Q01DX005 (ip), vehicle: saline 95 % of control | dose: 200.0 mg/kg/injection, schedule: Q01DX005 (ip), vehicle: saline 101 % of control

CN(C)N=Nc1ccc(C(=O)N/N=C/c2ccc(I)cc2)cc1
inactive: dose: 75.0 mg/kg/injection, schedule: Q04DX003 (ip), vehicle: Klucel (hydroxypropylcellulose) (HPC) 101 % of control | dose: 150.0 mg/kg/injection, schedule: Q04DX003 (ip), vehicle: Klucel (hydroxypropylcellulose) (HPC) 97 % of control | dose: 300.0 mg/kg/injection, schedule: Q04DX003 (ip), vehicle: Klucel (hydroxypropylcellulose) (HPC) 89 % of control

CCCCCCCCCCC(C1CCCC2CCCCC21)C1CCCC2CCCCC21 (centres undefined)
inactive: dose: 100.0 mg/kg/injection, schedule: Q01DX001 (ip), vehicle: carboxymethylcellulose (CMC) 100 % of control | dose: 200.0 mg/kg/injection, schedule: Q01DX001 (ip), vehicle: carboxymethylcellulose (CMC) 102 % of control | dose: 400.0 mg/kg/injection, schedule: Q01DX001 (ip), vehicle: carboxymethylcellulose (CMC) 94 % of control

Cc1cccc(C)c1NC(=O)NC(C)C
inactive: [3] 106 % of control | [4] 93 % of control | [5] 94 % of control | [6] 94 % of control | [7] 99 % of control | [8] 93 % of control

O=C(CBr)c1ccc(F)cc1
inactive: dose: 2.0 mg/kg/injection, schedule: Q01DX015 (ip), vehicle: carboxymethylcellulose (CMC) 93 % of control | dose: 4.0 mg/kg/injection, schedule: Q01DX015 (ip), vehicle: carboxymethylcellulose (CMC) 105 % of control | dose: 5.0 mg/kg/injection, schedule: Q01DX001 (ip), vehicle: saline 97 % of control | dose: 8.0 mg/kg/injection, schedule: Q01DX015 (ip), vehicle: carboxymethylcellulose (CMC) 88 % of control | dose: 10.0 mg/kg/injection, schedule: Q01DX001 (ip), vehicle: saline 100 % of control | dose: 15.0 mg/kg/injection, schedule: Q01DX015 (ip), vehicle: carboxymethylcellulose (CMC) 97 % of control | dose: 20.0 mg/kg/injection, schedule: Q01DX001 (ip), vehicle: saline 92 % of control | dose: 40.0 mg/kg/injection, schedule: Q01DX001 (ip), vehicle: saline 92 % of control | dose: 80.0 mg/kg/injection, schedule: Q01DX001 (ip), vehicle: saline 97 % of control

CC12CCC3C(CC4OC45CC(O)CCC35C)C1CCC21CO1 (centres undefined)
inactive: dose: 50.0 mg/kg/injection, schedule: Q01DX001 (sc), vehicle: steriod suspending solution 98 % of control | dose: 100.0 mg/kg/injection, schedule: Q01DX001 (sc), vehicle: steriod suspending solution 104 % of control | dose: 200.0 mg/kg/injection, schedule: Q01DX001 (sc), vehicle: steriod suspending solution 95 % of control | dose: 400.0 mg/kg/injection, schedule: Q01DX001 (sc), vehicle: steriod suspending solution 101 % of control

C=CC(CO)N1CC1 (centres undefined)
inactive: dose: 25.0 mg/kg/injection, schedule: Q01DX001 (ip), vehicle: carboxymethylcellulose (CMC) 101 % of control | dose: 50.0 mg/kg/injection, schedule: Q01DX001 (ip), vehicle: carboxymethylcellulose (CMC) 103 % of control

CSc1ccc(NC(=O)Nc2ccccc2)cc1
inactive: [3] 116 % of control | [4] 95 % of control | [5] 106 % of control | [6] 93 % of control | [7] 106 % of control | [8] 95 % of control

C=CS(=O)(=O)c1ccc2ccccc2c1
inactive: dose: 10.0 mg/kg/injection, schedule: Q04DX002 (ip), vehicle: Klucel (hydroxypropylcellulose) (HPC) 118 % of control | dose: 20.0 mg/kg/injection, schedule: Q04DX002 (ip), vehicle: Klucel (hydroxypropylcellulose) (HPC) 96 % of control | dose: 40.0 mg/kg/injection, schedule: Q04DX002 (ip), vehicle: Klucel (hydroxypropylcellulose) (HPC) 100 % of control

C[n+]1c2ccccc2c(N=[N+]=[N-])c2ccccc21
inactive: dose: 6.25 mg/kg/injection, schedule: Q01DX001 (ip), vehicle: suspension in saline 98 % of control | dose: 12.5 mg/kg/injection, schedule: Q01DX001 (ip), vehicle: suspension in saline 98 % of control | dose: 12.5 mg/kg/injection, schedule: Q04DX003 (ip), vehicle: suspension in saline 97 % of control | dose: 25.0 mg/kg/injection, schedule: Q01DX001 (ip), vehicle: suspension in saline 98 % of control | dose: 25.0 mg/kg/injection, schedule: Q04DX003 (ip), vehicle: suspension in saline 95 % of control | dose: 50.0 mg/kg/injection, schedule: Q04DX003 (ip), vehicle: suspension in saline 105 % of control

CCOP(=S)(OCC)SC(C)C
inactive: dose: 100.0 mg/kg/injection, schedule: Q04DX003 (ip), vehicle: saline with Tween-80 97 % of control | dose: 200.0 mg/kg/injection, schedule: Q04DX003 (ip), vehicle: saline with Tween-80 97 % of control

COC(=S)SCN(CSC(=S)OC)c1ccccc1Cl
inactive: dose: 50.0 mg/kg/injection, schedule: Q01DX001 (ip), vehicle: Klucel (hydroxypropylcellulose) (HPC) 111 % of control | [1] 101 % of control | [3] 109 % of control | [4] 103 % of control | [2] 103 % of control | [5] 109 % of control | [6] 95 % of control | dose: 400.0 mg/kg/injection, schedule: Q01DX001 (ip), vehicle: Klucel (hydroxypropylcellulose) (HPC) 98 % of control | [7] 109 % of control | [8] 103 % of control

Cc1ccccc1NC1=C(Cl)C(=O)c2ccccc2C1=O
inactive: dose: 25.0 mg/kg/injection, schedule: Q04DX003 (ip), vehicle: saline 93 % of control | dose: 50.0 mg/kg/injection, schedule: Q04DX003 (ip), vehicle: saline 93 % of control | dose: 100.0 mg/kg/injection, schedule: Q01DX001 (ip), vehicle: saline 93 % of control
